The values that follow come from patent US6960456B1, “Method for preparing conjugated linoleic acid” (Valio Ltd., priority 1999, dated 2005).

Data set [1] has as its system Propionibacterium freudenreichii ssp. shermanii JS (PJS). Briefly: Growth of PJS strain in MRS medium containing linoleic acid (turbidity, Klett meter). It counts as cell-based. The settings on record: for Growth (cell density of the culture as turbidity, Klett meter): 600 μg/ml linoleic acid, 30° C. The protocol:
(§1) As controls were used the same medium without addition (positive growth control) and a medium to which only detergent was added. For the test, the propionic acid bacterium strains Propionibacterium freudenreichii ssp. shermanii JS (PJS), DSM 7067, and P. freudenreichii ssp. freudenreichii 131 ([…]) were first cultivated in MRS broths with • 1) no addition • 2) 600 μg/ml linoleic acid • 3) addition of 600 μg/ml linoleic acid from a stock solution containing 5 mg/ml linoleic acid and 1% of Tween 80 preparation in an aqueous solution (final content of Tween […]) • 4) addition of 0.9% of Kotilen and 600 μg/ml linoleic acid micellized according to Example 1 • 5) addition of 0.9% of Kotilen only (not linoleic acid) Each bacterium strain was cultivated in the culture medium twice at 30° C. for 72 h, whereafter each test broth was inoculated with 1% of fresh culture. The test cultures were monitored at 30° C. for 4 days by determining the cell density of the culture as turbidity with a Klett meter. At the end of cultivation (96 h), the amount of formed CLA was determined by gas chromatography, the c9,t11 isomer separately and the other isomers together.

Data set [2] has as its system P. freudenreichii ssp. freudenreichii 131 (P131). Briefly: Growth of P131 strain in MRS medium containing linoleic acid (turbidity, Klett meter). It counts as cell-based, Propionibacterium freudenreichii ssp. freudenreichii. The settings on record: for Growth (cell density of the culture as turbidity, Klett meter): 600 μg/ml linoleic acid, 30° C. On the procedure: as §1

Data set [3] concerns PJS cells. Briefly: Viable cell concentration in pH-adjusted fermentor culturing of PJS cells with micellized linoleic acid. It counts as cell-based, Propionibacterium freudenreichii ssp. shermanii. The protocol: The most efficient way to cultivate propionic acid bacteria on an industrial scale is to do it in a fermentor where the pH of the medium can be maintained optimal for cellular growth. A production process of conjugated linoleic acid by means of growing PJS cells was examined in fermentor cultures the solution volume being 2 liters. The whey permeate broth of Example 2 was used as growth medium. The growth broth contained micellized linoleic acid 400, 600, 1000 or 1400 μg/ml and Kotilen detergent 0.6, 0.9 or 1.5%, respectively. During the cultivation, the pH of the growth medium was maintained at 6.3 with linoleic acid concentrations of 400, 600 and 1000 μg/ml and at 6.5 with linoleic acid concentration of 1400 μg/ml by means of an automatic addition of ammonium solution. The cultivation temperature was 30° C. and the mixing rate was 100 rpm. The concentration of viable propionic acid bacteria cells was determined in buffered sodium lactate agar and the agar dishes were incubated at 30° C. anaerobically for 5 to 7 days. Table 3 compares the CLA production process in a fermentor, with the linoleic acid content in the medium of 400, 600 and 1000 μg/ml, after 94 hour cultivation, and that of 1400 μg/ml, after 108 and 132 hour cultivation.

For data set [4], the system named is breast cancer. To be noted: cited from earlier work.
Data set [5] relates to propionic acid bacteria. The settings on record: even in relatively low concentrations; cited from earlier work.
In data set [6] the test system is mammary, stomach and colon cancer. The settings on record: CLA-containing diet, compared with the reference group; cited from earlier work.
The subject of data set [7] is cancer cells. To be noted: tissue cultures of human cells; cited from earlier work.
Data set [8] has as its system high density lipoprotein (HDL). The settings on record: rabbit, in vivo; cited from earlier work.
Data set [9] has as its system fatty tissues. The settings on record: mouse, in vivo; cited from earlier work.

For the compound `CCCCC/C=C\C/C=C\CCCCCCCC(=O)O` [LA, cis-9,trans-12 octadecadienoic acid], the “Effect on growth as compared with the control (in words)” value in data set [1] (600 μg/ml) and in data set [2] (600 μg/ml) was “inhibited the growth” throughout. Moreover, the “Growth (cell density of the culture as turbidity, Klett meter)” value stood at 78 in data set [1] (0 h); 84 in data set [1] (24 h); 96 in data set [1] (48 h); 106 in data set [1] (72 h); 110 in data set [1] (96 h); 80 in [2] (0 h). Further, the “Growth (cell density of the culture as turbidity, Klett meter)” value in data set [2] (24 h) worked out at 90; in data set [2] (48 h), 97; in [2] (72 h), 107; in data set [2] (96 h) it was 115. Further, the “cell concentration (cfu/ml)” value in data set [3] (micellized LA 400 μg/ml, deterg. (Kotilen) 0.6%, 94 h, pH 6.3, 30° C.) is 1.3 × 10^10 cfu/ml; in [3] (micellized LA 600 μg/ml, deterg. (Kotilen) 0.9%, 94 h, pH 6.3, 30° C.) it was 1.2 × 10^10 cfu/ml; in [3] (micellized LA 1000 μg/ml, deterg. (Kotilen) 1.5%, 94 h, pH 6.3, 30° C.) it was 1.4 × 10^10 cfu/ml; in data set [3] (micellized LA 1400 μg/ml, deterg. (Kotilen) 1.5%, 108 h, pH 6.5, 30° C.), 2.4 × 10^9 cfu/ml; in [3] (micellized LA 1400 μg/ml, deterg. (Kotilen) 1.5%, 132 h, pH 6.5, 30° C.), 1.3 × 10^10 cfu/ml. Further, in data set [4], the “effect on breast cancer” value is “stimulating effect”. Further, the “effect on the growth of propionic acid bacteria” value in data set [5] is “inhibitory effect”.

Turning to conjugated linoleic acid [CLA], the “number of mammary, stomach and colon cancer incidences” value in data set [6] is given as “reduced”. In addition, the “development of cancer cells” value in data set [7] is recorded as “capable of inhibiting development of cancer cells”. Moreover, in data set [8], the “amount of the good high density lipoprotein (HDL)” value is “does not reduce”. Further, the “effect on fatty tissues” value in data set [9] was “split fatty tissues”.
